Results published in patent US7754701B2, “Difructose anhydride-containing composition and use thereof” (Fancl Corporation, priority 2002, dated 2010).
Several values for one entry are separate records, joined by “and”; a condition that tells them apart may be missing. Equal values may be shown once.

Assays:
[1] = Diuretic test using DFA III; assay type: in vivo, human
From the text: DFA III was made into granules to make a granular food product. Since granulation was possible without excipient, the DFA content was 100%. Six healthy males were given with 1 g/day of this granular food product together with water consecutively for 1 week in the first period of the test. Then, after a week of the washout period, the same 6 healthy subjects were given with 1 g/day of sugar together with water consecutively for 1 week in the second period of the test.
During the test periods, all subjects lived under the same environment, doing the same level of exercise and taking the same amount of diet and drinking water. The whole volume of urine excreted during the test periods was recovered and the volume was measured to obtain a daily average urine volume to compare the two test periods.

[2] = tested on: Streptococcus mutans MT 8148; experiment: Acid production by Streptococcus mutans (Example 9), strain MT 8148; assay type: cell-based; conditions: 10 ml of 5% solution added to 2 ml cell suspension, 37° C., FIG. 6
Protocol: (§1) Dental caries causative bacteria (Streptococcus mutans) MT 8148 and 6715 strains provided by a microbial lineage storage laboratory of The Institute of Physical Chemical Research (Riken) were cultured on a brain heart infusion broth medium overnight and then cells were collected by centrifugation. The cells were washed twice with a phosphate buffered (5 mM) physiological saline solution (pH 7.0) and then suspended in the same saline solution. Ten milliliters each of 5% DFA III, sorbitol, palatinose, xylitol, and sucrose solutions were added to 2 ml of this concentrated cell suspension. Immediately, reaction was carried out at 37° C. and then change with time in pH of each reaction mixture was measured.

[3] = tested on: small intestines (jejunum and ileum) and large intestines (cecum and colon) mucous membrane specimen; experiment: Zinc absorption in Ussing chamber; design: species or system rat; conditions: DFA III 0 to 100 mM, FIG. 2
mice = experiment: Acute toxicity test in mice; assay type: in vivo; conditions: 10 days, 1000 mg/kg of oral administration
From the text: Further, DFA, an effective component of the invention, has no problem in its safety.

serum osteocalcin [4] = experiment: Bone formation in human: serum osteocalcin, DFA III with calcium carbonate (Example 5); assay type: in vivo; conditions: 1 g DFA III and 0.25 g calcium carbonate 3 times a day for 2 weeks vs calcium carbonate alone; fourteen healthy adult males; FIG. 5
Protocol: Fourteen healthy adult males were administered with 1 g of DFA III and 0.25 g of calcium carbonate or 0.25 g of placebo (calcium carbonate) 3 times a day for 2 weeks to study the change in serum osteocalcin concentration.

[5] = Effectiveness on defecation in human; assay type: in vivo; conditions: 3 g once a day for one month; for Feeling of defecation: Much better (number of subjects) / Feeling of defecation: No change (number of subjects) / Feeling of defecation: Slightly better (number of subjects) / Feeling of defecation: Slightly worse (number of subjects) / Feeling of defecation: Worse (number of subjects) / Stool properties, change observed: Constipation (worse after ingestion; number of subjects) / Stool properties, change observed: Normal stool (number of subjects) / Stool properties, change observed: Soft stool (number of subjects) / Stool properties, change observed: Solid stool (number of subjects) / Stool properties: No change (number of subjects): fifty adults; for Stool properties, change observed: Diarrhea (number of subjects): fifty adults with tendency of constipation
Protocol: Fifty adults who were healthy but aware of their poor stool frequency and tendency of constipation were given with 3 g of DFA III, 3 g of melibiose or 3 g of placebo (starch) once a day for one month. The defecation condition was recorded and stool properties and feeling of defecation were studied.

[6] = tested on: small intestines (jejunum and ileum) and large intestines (cecum and colon) mucous membrane specimen; experiment: Copper absorption in Ussing chamber; design: species or system rat; conditions: DFA III 0 to 100 mM, FIG. 3
serum osteocalcin [7] = experiment: Bone formation in human: serum osteocalcin, DFA III alone (Example 6); assay type: in vivo; conditions: 3 g DFA III 3 times a day for 2 weeks
Protocol: Twenty-three healthy adult males and females on normal diet were administered with 3 g of DFA III 3 times a day for 2 weeks to study the change in serum osteocalcin concentration.

serum osteocalcin [8] = experiment: Bone formation in human: serum osteocalcin, DFA III with calcium lactate (Example 4); assay type: in vivo; conditions: 3 g DFA III and 0.77 g calcium lactate 3 times a day for 1 week vs calcium lactate alone; six healthy adult males; FIG. 4
Protocol: Six healthy adult males were administered with 3 g of DFA III and 0.77 g of calcium lactate or 0.77 g of placebo (calcium lactate) 3 times a day for 1 week to study the change in serum osteocalcin concentration.

[9] = tested on: Streptococcus mutans MT 8148; experiment: Acid production by Streptococcus mutans, DFA and palatinose (Example 10), strain MT 8148; assay type: cell-based; conditions: 10 ml of 1% solution added to 2 ml cell suspension, 37° C., FIG. 7
Protocol: as §1, with “a 1% palatinose solution, 1%” for “5%”, “a 1% palatinose solution with 1% DFA III added” for “sorbitol, palatinose, xylitol, and sucrose solutions”

[10] = tested on: small intestines (jejunum and ileum) and large intestines (cecum and colon) mucous membrane specimen; experiment: Magnesium absorption in Ussing chamber; design: species or system rat; conditions: DFA III 0, 1, 10, 100 mM on mucous membrane side, 37° C., 30 minutes, FIG. 1
Protocol: Acceleration of magnesium absorption by DFA III was confirmed by using an Ussing chamber as follows.
In this experiment, 7 to 8 weeks old Sprague-Dawley male rats (with an average body weight of about 260 g) were used.
The rats were purchased at 6 weeks of age (Japan SLC) and fed on a commercial solid feed (CE-2, Japan CLEA) until the start of the experiment.
On the day of the experiment, rats were injected intraperitoneally with sodium pentobarbital and the small intestines (cejunum and ileum) and the large intestines (cecum and colon) were extracted under the anaesthetization. Contents of each of the intestines were removed, the intestines were opened, and the serous membrane and the layer of smooth muscle were peeled off to prepare a specimen comprising the mucous membrane and submucosal tissue, which was then loaded onto an Ussing chamber (with an effective area of 0.67 cm^2).
Separately, a buffer solution for the mucous membrane side and a buffer solution for serous membrane side were prepared. The buffer solution for mucous membrane side was basically comprised of the following ingredients. […]
After the incubation was completed, the solution of serous membrane side was recovered and the Mg concentration in the solution was measured using a commercial kit (Wako Pure Chemicals). […]

With `OC[C@H]1O[C@@]2(CO[C@]3(CO)O[C@H](CO)[C@@H](O)[C@@H]3O2)[C@@H](O)[C@@H]1O` [DFA III, difructose anhydride III] the “Average daily urine volume” value ([1]; 1 g/day DFA III granular food product with water for 1 week, individual subjects A-F, healthy males) was 2600 mL and 2950 mL and 2560 mL and 2850 mL and 3010 mL and 2050 mL, the abnormal subjective findings ([1]; 1 g/day for 1 week) was “no abnormal subjective findings” and the “average daily urine volume, first vs second test period” value ([1]; all individual subjects, DFA III 1 g/day vs sugar 1 g/day) was “evidently greater”. The “biochemical blood tests (liver function, renal function, blood pressure, blood cell counts, total Chol, TG)” value ([1]; first test period (DFA III) vs second test period (sugar)) was “the same”, the “acid production (change with time in pH of reaction mixture)” value [2] was “almost no acid” and the “Zn absorption (net rate, mucous to serous membrane side)” value [3] was “evidently increased”. For the same compound, the “acute toxicity (death)” value (mice) was “no death”, the “level of osteocalcin (serum), change” value (serum osteocalcin [4]) was “increased more” and the “Feeling of defecation: Much better (number of subjects)” value [5] was 23. For the same compound, the “Feeling of defecation: No change (number of subjects)” value [5] was 0, the “Feeling of defecation: Slightly better (number of subjects)” value [5] was 27 and the “Feeling of defecation: Slightly worse (number of subjects)” value [5] was 0. The “Feeling of defecation: Worse (number of subjects)” value [5] was 0, the “Stool properties, change observed: Constipation (worse after ingestion; number of subjects)” value [5] was 0 and the “Stool properties, change observed: Normal stool (number of subjects)” value [5] was 39. For the same compound, the “Stool properties, change observed: Soft stool (number of subjects)” value [5] was 7, the “Stool properties, change observed: Solid stool (number of subjects)” value [5] was 3 and the “Stool properties: No change (number of subjects)” value [5] was 0. The “Stool properties, change observed: Diarrhea (number of subjects)” value [5] was 0, the “Cu absorption (net rate, mucous to serous membrane side)” value [6] was “evidently increased” and the “level of osteocalcin, change by ingestion” value (serum osteocalcin [7]; no added calcium) was “increased”. The “Serum osteocalcin concentration, After ingestion” value (serum osteocalcin [7]; 23 healthy adults on normal diet, Average ± SD) was 5.7 ± 1.5 ng/mL, the “Serum osteocalcin concentration, Before ingestion” value (serum osteocalcin [7]; 23 healthy adults on normal diet, Average ± SD, *p < 0.1) was 7.0 ± 2.0* ng/ml and the “level of osteocalcin (serum), change” value (serum osteocalcin [8]) was “increased more”. For the same compound, the “acid production (change with time in pH of reaction mixture)” value [9] was “almost no acid was produced” and the “Mg absorption (net rate, mucous to serous membrane side)” value [10] was “evidently increased”.

In the case of `OC[C@H]1O[C@H](OCC2O[C@@H](O)[C@H](O)[C@@H](O)[C@@H]2O)[C@H](O)[C@@H](O)[C@H]1O` (stereo partly shown) [melibiose], the “Feeling of defecation: Much better (number of subjects)” value [5] is reported as 22, the “Feeling of defecation: No change (number of subjects)” value [5] is reported as 0 and the “Feeling of defecation: Slightly better (number of subjects)” value [5] is reported as 28. For the same compound, the “Feeling of defecation: Slightly worse (number of subjects)” value [5] was 0, the “Feeling of defecation: Worse (number of subjects)” value [5] was 0 and the “Stool properties, change observed: Constipation (worse after ingestion; number of subjects)” value [5] was 0. For the same compound, the “Stool properties, change observed: Normal stool (number of subjects)” value [5] was 40, the “Stool properties, change observed: Soft stool (number of subjects)” value [5] was 8 and the “Stool properties, change observed: Solid stool (number of subjects)” value [5] was 2. For the same compound, the “Stool properties: No change (number of subjects)” value [5] was 0 and the “Stool properties, change observed: Diarrhea (number of subjects)” value [5] was 0.

For `OC[C@H]1O[C@H](OC[C@H]2OC(O)(CO)[C@@H](O)[C@@H]2O)[C@H](O)[C@@H](O)[C@@H]1O` (stereo partly shown) [palatinose, reference compound], the “acid production (change with time in pH of reaction mixture)” value [2] was “almost no acid” and the “acid production (change with time in pH of reaction mixture)” value [9] was “acid was produced”.

With `OC[C@@H](O)[C@@H](O)[C@H](O)[C@@H](O)CO` [sorbitol] the “acid production (change with time in pH of reaction mixture)” value [2] was “almost no acid”.

For `OC[C@H]1O[C@@](CO)(O[C@H]2O[C@H](CO)[C@@H](O)[C@H](O)[C@H]2O)[C@@H](O)[C@@H]1O` [sucrose], the “acid production (change with time in pH of reaction mixture)” value [2] was “evidently lowered the pH”.

For `OC[C@H]1O[C@@](CO)(O[C@H]2O[C@H](CO)[C@@H](O)[C@H](O)[C@H]2O)[C@@H](O)[C@@H]1O` [sugar, reference compound], the “Average daily urine volume” value ([1]; 1 g/day sugar with water for 1 week after 1 week washout, same subjects A-F) was 1620 mL and 1760 mL and 1650 mL and 1250 mL and 1850 mL and 1520 mL.

With `OC[C@@H](O)[C@H](O)[C@@H](O)CO` [xylitol] the “acid production (change with time in pH of reaction mixture)” value [2] was “almost no acid”.
